Laboratory results as given in patent US9056865B2, “Pyridine-2-derivatives as smoothened receptor modulators” (Pfizer Inc., priority 2010, dated 2015).

Assays:
human Smo = human Smo (Homo sapiens (Human), UniProt Q99835); assay: Smo radioligand competition binding assay; details: for inhibition at 0.05 µM: 0.05 μM test compound, read-out: Smo % inh. @ 0.05 μM
Summary of the method: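 Membranes from HEK293 cells expressing surface human Smo 181-781 (40 μg protein/well) incubated 2 h at room temperature with test compound and tritiated Smo antagonist (3 nM), pH 7.5 Tris buffer; filtration and scintillation counting. Non-specific binding defined with 30 μM cold antagonist; IC50 from four-parameter sigmoidal fit.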

Gli-Luc/MEF cells = assay: Gli-Luc/MEF assay; format: cell-based, mouse; details: Mus musculus, MEF; Shh-stimulated luciferase, 48 hours
Summary of the method: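 Shh-stimulated luciferase readout (Bright-Glo) after 48 h, 37 °C, 5% CO2, used to derive IC50 of inhibition. Gli-Luc transgenic mouse MEFs received test compounds at final […] in 3-fold dilutions, with recombinant mouse Shh added immediately at final 2 μg/mL.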

human Smo, sequence (Q99835 181-787): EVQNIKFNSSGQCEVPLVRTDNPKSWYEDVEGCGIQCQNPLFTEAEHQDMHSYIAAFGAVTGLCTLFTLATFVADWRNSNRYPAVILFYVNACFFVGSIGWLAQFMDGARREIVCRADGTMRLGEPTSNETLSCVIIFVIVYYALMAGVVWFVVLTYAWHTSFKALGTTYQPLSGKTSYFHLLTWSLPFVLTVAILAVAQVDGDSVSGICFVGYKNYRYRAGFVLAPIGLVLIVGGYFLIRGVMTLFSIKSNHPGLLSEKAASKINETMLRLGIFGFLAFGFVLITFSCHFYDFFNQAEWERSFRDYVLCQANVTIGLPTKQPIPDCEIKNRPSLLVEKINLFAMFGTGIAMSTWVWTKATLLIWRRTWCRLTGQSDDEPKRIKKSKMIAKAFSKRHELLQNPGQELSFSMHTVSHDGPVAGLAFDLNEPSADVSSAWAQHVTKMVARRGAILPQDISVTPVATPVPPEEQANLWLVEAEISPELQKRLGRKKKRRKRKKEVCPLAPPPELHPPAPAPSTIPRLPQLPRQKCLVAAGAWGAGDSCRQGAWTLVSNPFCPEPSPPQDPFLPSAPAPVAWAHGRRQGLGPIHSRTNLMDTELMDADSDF

SMILES | IC50 (human Smo) [nM] | inhibition at 0.05 µM (human Smo) [%] | IC50 (Gli-Luc/MEF cells) [nM]
CS(=O)(=O)CC1CCN(c2ncc(Cl)c(-c3ccccn3)n2)CC1 [Example A-92, 5-chloro-2-{4-[(methylsulfonyl)methyl]piperidin-1-yl}-4-pyridin-2-ylpyrimidine] | 132 | 79.8 | 59
Cc1cccnc1-c1cc(N2CCN(C(=O)CCS(C)(=O)=O)CC2)ncc1Cl [Example A-93, 5′-chloro-3-methyl-2′-{4-[3-(methylsulfonyl)propanoyl]piperazin-1-yl}-2,4′-bipyridine] | 9.84 | 97.5 | 12.4
Cc1cnc(-c2cc(N3CCC(O)CC3)ncc2Cl)c(C)c1 [Example A-94, 1-(5′-chloro-3,5-dimethyl-2,4′-bipyridin-2′-yl)piperidin-4-ol] | 44.2 | 88 | 28.4
Cc1cccnc1-c1cc(N2CCC(NC(=O)CCS(C)(=O)=O)CC2)ncc1Cl [Example A-95, N-[1-(5′-chloro-3-methyl-2,4′-bipyridin-2′-yl)piperidin-4-yl]-3-(methylsulfonyl)propanamide] | 37 | 94 | 32
Cc1cccnc1-c1cc(N2CCC(CNCCS(C)(=O)=O)CC2)ncc1Cl [Example A-96, N-{[1-(5′-chloro-3-methyl-2,4′-bipyridin-2′-yl)piperidin-4-yl]methyl}-2-(methylsulfonyl)ethanamine] | 102 | 84.1 | 62.5
Cc1cccnc1-c1nc(N2CCC(CS(C)(=O)=O)CC2)ncc1Cl [Example A-97, 5-chloro-4-(3-methylpyridin-2-yl)-2-{4-[(methylsulfonyl)methyl]piperidin-1-yl}pyrimidine] | 30 | 95.4 | 13.3
Cc1cnc(-c2cc(N3CCC(CS(C)(=O)=O)CC3)ncc2Cl)c(C)c1 [Example A-98, 5′-chloro-3,5-dimethyl-2′-{4-[(methylsulfonyl)methyl]piperidin-1-yl}-2,4′-bipyridine] | 12.4 | 96.6 | 9.4
CS(=O)(=O)CCC(=O)N1CCN(c2ccc(Cl)c(-c3ccccn3)n2)CC1 [Example A-99, 3-chloro-6-{4-[3-(methylsulfonyl)propanoyl]piperazin-1-yl}-2,2′-bipyridine] | 33.1 | 94.4 | 23.9
CC(=O)N1CCN(c2cc(-c3ncc(C)cc3C)c(Cl)cn2)CC1 [Example A-100, 2′-(4-acetylpiperazin-1-yl)-5′-chloro-3,5-dimethyl-2,4′-bipyridine] | 113 | 85.6 | 50.2
COC(=O)N1CCN(c2cc(-c3ncc(C)cc3C)c(Cl)cn2)CC1 [Example A-101, methyl 4-(5′-chloro-3,5-dimethyl-2,4′-bipyridin-2′-yl)piperazine-1-carboxylate] | 72.4 | 89 | 30.2
Cc1cnc(-c2cc(N3CCN(C(=O)CO)CC3)ncc2Cl)c(C)c1 [Example A-102, 2-[4-(5′-chloro-3,5-dimethyl-2,4′-bipyridin-2′-yl)piperazin-1-yl]-2-oxoethanol] | 57.9 | 84 | 60.1
Cc1cnc(-c2cc(N3CCN(C(=O)CC(C)(C)O)CC3)ncc2Cl)c(C)c1 [Example A-103, 4-[4-(5′-chloro-3,5-dimethyl-2,4′-bipyridin-2′-yl)piperazin-1-yl]-2-methyl-4-oxobutan-2-ol] | 19.4 | 98 | 11.7
Cc1cnc(-c2cc(N3CCN(S(C)(=O)=O)CC3)ncc2Cl)c(C)c1 [Example A-104, 5′-chloro-3,5-dimethyl-2′-[4-(methylsulfonyl)piperazin-1-yl]-2,4′-bipyridine] | 36 | 92.9 | 12.7
Cc1cnc(-c2cc(N3CCN(C(=O)CN(C)C)CC3)ncc2Cl)c(C)c1 [Example A-105, 2-[4-(5′-chloro-3,5-dimethyl-2,4′-bipyridin-2′-yl)piperazin-1-yl]-N,N-dimethyl-2-oxoethanamine] | 82.4 | 84.5 | 12.3
Cc1cnc(-c2cc(N3CCN(C(=O)CCO)CC3)ncc2Cl)c(C)c1 [Example A-106, 3-[4-(5′-chloro-3,5-dimethyl-2,4′-bipyridin-2′-yl)piperazin-1-yl]-3-oxopropan-1-ol] | 65.7 | 86 | 36.5
Cc1cccnc1-c1cc(N2[C@@H]3CC[C@H]2CN(C(=O)CC(C)(C)O)C3)ncc1Cl [Example A-107, 1-[(1R,5S)-8-(5′-chloro-3-methyl-2,4′-bipyridin-2′-yl)-3,8-diazabicyclo[3.2.1]oct-3-yl]-3-hydroxy-3-methylbutan-1-one] |  | 82.7 | 41.5

SMILES | IC50 (human Smo) [nM] | inhibition at 0.05 µM (human Smo) [%] | IC50 (Gli-Luc/MEF cells) [nM]
Cc1cc(F)cnc1-c1cc(N2CCC(NS(C)(=O)=O)CC2)ncc1Cl [Example A-108, N-[1-(5′-chloro-5-fluoro-3-methyl-2,4′-bipyridin-2′-yl)piperidin-4-yl]methanesulfonamide] | 20.8 | 91.5 | 11.2
Cc1cc(Cl)cnc1-c1cc(N2CCC(NS(C)(=O)=O)CC2)ncc1Cl [Example A-109, N-[1-(5,5′-dichloro-3-methyl-2,4′-bipyridin-2′-yl)piperidin-4-yl]methanesulfonamide] | 20.5 | 97.4 | 6.81
COCCS(=O)(=O)N1CCN(c2cc(-c3ncc(C)cc3C)c(Cl)cn2)CC1 [Example A-110, 5′-chloro-2′-{4-[(2-methoxyethyl)sulfonyl]piperazin-1-yl}-3,5-dimethyl-2,4′-bipyridine] | 29.2 | 94.4 | 12.4
Cc1cnc(-c2cc(N3CCN(S(=O)(=O)CCO)CC3)ncc2Cl)c(C)c1 [Example A-111, 2-{[4-(5′-chloro-3,5-dimethyl-2,4′-bipyridin-2′-yl)piperazin-1-yl]sulfonyl}ethanol] | 23.3 | 95 | 10.2
Cc1cnc(-c2cc(N3CCN(CCS(C)(=O)=O)CC3)ncc2Cl)c(C)c1 [Example A-112, 5′-chloro-3,5-dimethyl-2′-{4-[2-(methylsulfonyl)ethyl]piperazin-1-yl}-2,4′-bipyridine] | 124 | 72.9 | 25.3
Cc1cnc(-c2cc(N3CCC(NC(=O)CO)CC3)ncc2Cl)c(C)c1 [Example A-113, N-[1-(5′-chloro-3,5-dimethyl-2,4′-bipyridin-2′-yl)piperidin-4-yl]-2-hydroxyacetamide] | 55.6 | 84 | 11.7
Cc1cnc(-c2cc(N3CCC(NC(=O)CN(C)C)CC3)ncc2Cl)c(C)c1 [Example A-114, N-(1-(5′-chloro-3,5-dimethyl-[2,4′-bipyridin]-2′-yl)piperidin-4-yl)-2-(dimethylamino)acetamide] | 19.2 | 94.5 | 3.86
Cc1ccc(-c2cccc(N3CCC(NS(C)(=O)=O)CC3)n2)nc1 [Example A-115, N-[1-(5′-methyl-2,2′-bipyridin-6-yl)piperidin-4-yl]methanesulfonamide] | 22 | 93 | 16
Cc1ccc(-c2nc(N3CCC(NS(C)(=O)=O)CC3)ccc2Cl)nc1 [Example A-117, N-[1-(3-chloro-5′-methyl-2,2′-bipyridin-6-yl)piperidin-4-yl]methanesulfonamide] | 17 | 96 | 11
Cc1cnc(-c2cc(N3CCC(CS(N)(=O)=O)CC3)ncc2Cl)c(C)c1 [Example A-118, 1-[1-(5′-chloro-3,5-dimethyl-2,4′-bipyridin-2′-yl)piperidin-4-yl]methanesulfonamide] | 11.1 | 93.8 | 8.46
Cc1ccc(-c2nc(N3CCC(NS(C)(=O)=O)CC3)ncc2Cl)nc1 [Example A-119, N-{1-[5-chloro-4-(5-methylpyridin-2-yl)pyrimidin-2-yl]piperidin-4-yl}methanesulfonamide] | 58.9 | 88.5 | 22.9
Cc1ccc(-c2nc(N3CCC(NS(C)(=O)=O)CC3)ccc2Br)nc1 [Example A-120, N-[1-(3-bromo-5′-methyl-2,2′-bipyridin-6-yl)piperidin-4-yl]methanesulfonamide] | 40 | 93 | 29
CCS(=O)(=O)NC1CCN(c2cc(-c3ncc(C)cc3C)c(Cl)cn2)CC1 [Example A-121, N-[1-(5′-chloro-3,5-dimethyl-2,4′-bipyridin-2′-yl)piperidin-4-yl]ethanesulfonamide] | 11.6 | 101 | 4.25
Cc1cnc(-c2cc(N3CCC(NC(=O)CCS(C)(=O)=O)CC3)ncc2Cl)c(C)c1 [Example A-122, N-[1-(5′-chloro-3,5-dimethyl-2,4′-bipyridin-2′-yl)piperidin-4-yl]-3-(methylsulfonyl)propanamide] | 14.7 | 103 | 5.49
COCCS(=O)(=O)NC1CCN(c2ccc(Cl)c(-c3ccccn3)n2)CC1 [Example A-123, N-[1-(3-chloro-2,2′-bipyridin-6-yl)piperidin-4-yl]-2-methoxyethanesulfonamide] | 26.7 | 90.4 | 14.1
Cc1cc(C#N)cnc1-c1cc(N2CCC(NS(C)(=O)=O)CC2)ncc1Cl [Example A-125, N-[1-(5′-chloro-5-cyano-3-methyl-2,4′-bipyridin-2′-yl)piperidin-4-yl]methanesulfonamide] | 95.6 | 82.3 | 32.3
